Measured values as given in ChEMBL document CHEMBL1131422, “N-(2-Benzoylphenyl)-L-tyrosine PPARgamma agonists. 1. Discovery of a novel series of potent antihyperglycemic and antihyperlipidemic agents” (J Med Chem, 1998).
Activity calls are given as the source filed them. The calls are words filed in the database; no cut-off is given here.

Experiments:
[1] = organism: Mus musculus; assay: Compound was tested for Antihyperlipidemic activity, activity is expressed as percent reduction of NEFAs; format: functional
[2] = organism: Mus musculus; assay: Compound was tested for Antihyperlipidemic activity, activity is expressed as percent reduction of Triglycerides; format: functional
[3] = test system: Mus musculus; assay: Compound was tested in vivo for Antihyperglycemic activity in mice, activity is expressed as percent reduction of plasma glucose.; format: functional
[4] = molecular target: T1, Peroxisome proliferator-activated receptor delta (Mus musculus) (UniProt P35396); assay: Compound was tested functionally in vitro for inducing 50% of the maximum alkaline phosphatase activity (Transactivation) against murine Peroxisome proliferator activated receptor delta using transfection assay in CV-1 cells; IA = Inactive at 10e-4 M; format: functional, cell-based
T1 sequence (whole entry): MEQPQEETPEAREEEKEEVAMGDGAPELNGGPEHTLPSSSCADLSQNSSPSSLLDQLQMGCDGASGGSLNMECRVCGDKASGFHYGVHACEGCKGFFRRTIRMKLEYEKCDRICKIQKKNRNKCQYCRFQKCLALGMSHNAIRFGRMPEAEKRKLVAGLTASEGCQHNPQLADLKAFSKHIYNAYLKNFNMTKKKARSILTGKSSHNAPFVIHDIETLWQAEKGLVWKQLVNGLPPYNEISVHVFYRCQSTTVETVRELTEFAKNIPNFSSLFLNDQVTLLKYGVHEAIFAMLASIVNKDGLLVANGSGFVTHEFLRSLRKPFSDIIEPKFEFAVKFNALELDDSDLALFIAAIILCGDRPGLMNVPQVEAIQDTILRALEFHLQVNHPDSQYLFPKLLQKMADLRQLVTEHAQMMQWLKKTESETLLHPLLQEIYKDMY

[5] = molecular target: T2, Peroxisome proliferator-activated receptor alpha (Mus musculus) (UniProt P23204); assay: Compound was tested functionally in vitro for inducing 50% of the maximum alkaline phosphatase activity (Transactivation) against murine Peroxisome proliferator activated receptor alpha using transfection assay in CV-1 cells; IA = Inactive at 10e-4 M; format: functional, cell-based
T2 sequence (whole entry): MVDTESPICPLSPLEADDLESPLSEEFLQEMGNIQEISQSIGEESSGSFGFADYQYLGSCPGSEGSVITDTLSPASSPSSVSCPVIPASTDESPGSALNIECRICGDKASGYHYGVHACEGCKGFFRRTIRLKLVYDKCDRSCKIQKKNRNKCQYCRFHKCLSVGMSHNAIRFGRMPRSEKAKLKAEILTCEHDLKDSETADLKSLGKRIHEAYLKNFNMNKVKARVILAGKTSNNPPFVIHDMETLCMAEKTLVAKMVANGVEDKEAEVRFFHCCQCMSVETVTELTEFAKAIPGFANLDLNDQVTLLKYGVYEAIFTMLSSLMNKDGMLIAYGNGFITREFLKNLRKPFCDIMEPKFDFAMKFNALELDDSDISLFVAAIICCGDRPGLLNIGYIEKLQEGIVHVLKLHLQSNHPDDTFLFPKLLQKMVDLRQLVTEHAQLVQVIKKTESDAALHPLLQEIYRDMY

[6] = test system: Rattus norvegicus; assay: Compound was tested in vivo for Antihyperglycemic activity in Zucker Diabetic fatty rats, activity is expressed as percent reduction of plasma glucose; format: functional
[7] = organism: Rattus norvegicus; assay: Compound was tested for Antihyperlipidemic activity in Zucker Diabetic fatty rats, activity is expressed as percent reduction of NEFAs; format: functional
[8] = organism: Rattus norvegicus; assay: Compound was tested for Antihyperlipidemic activity in Zucker Diabetic fatty rats, activity is expressed as percent reduction of Triglycerides; format: functional
[9] = molecular target: T3, Peroxisome proliferator-activated receptor gamma (Mus musculus, UniProt P37238); assay: Compound was tested functionally in vitro for inducing 50% of the maximum alkaline phosphatase activity (Transactivation) against murine Peroxisome proliferator activated receptor gamma using transfection assay in CV-1 cells; format: functional, cell-based
T3 sequence (P37238 whole entry): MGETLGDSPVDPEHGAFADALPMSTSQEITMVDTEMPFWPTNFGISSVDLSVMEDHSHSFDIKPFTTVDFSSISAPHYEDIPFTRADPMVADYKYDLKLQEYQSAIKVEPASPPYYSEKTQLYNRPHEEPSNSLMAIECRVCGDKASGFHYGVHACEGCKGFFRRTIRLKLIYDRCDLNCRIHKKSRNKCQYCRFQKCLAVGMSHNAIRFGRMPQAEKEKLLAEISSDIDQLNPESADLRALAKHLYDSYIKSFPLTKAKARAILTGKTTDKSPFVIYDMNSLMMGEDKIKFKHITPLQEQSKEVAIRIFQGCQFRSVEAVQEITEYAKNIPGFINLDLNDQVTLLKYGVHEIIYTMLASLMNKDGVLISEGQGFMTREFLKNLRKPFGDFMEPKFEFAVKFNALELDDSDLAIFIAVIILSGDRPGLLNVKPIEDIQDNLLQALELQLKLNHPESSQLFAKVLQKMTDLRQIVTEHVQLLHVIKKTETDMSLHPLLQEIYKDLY

[10] = test system: Rattus norvegicus; assay: Compound was tested in vivo for Antihyperglycemic activity in Zucker Diabetic fatty rats, activity is expressed as percent reduction of HbA1C.; format: functional
[11] = molecular target: T4, Peroxisome proliferator-activated receptor delta (Homo sapiens) (UniProt Q03181); settings: CV-1; 10e-4 M
T4 sequence (whole entry): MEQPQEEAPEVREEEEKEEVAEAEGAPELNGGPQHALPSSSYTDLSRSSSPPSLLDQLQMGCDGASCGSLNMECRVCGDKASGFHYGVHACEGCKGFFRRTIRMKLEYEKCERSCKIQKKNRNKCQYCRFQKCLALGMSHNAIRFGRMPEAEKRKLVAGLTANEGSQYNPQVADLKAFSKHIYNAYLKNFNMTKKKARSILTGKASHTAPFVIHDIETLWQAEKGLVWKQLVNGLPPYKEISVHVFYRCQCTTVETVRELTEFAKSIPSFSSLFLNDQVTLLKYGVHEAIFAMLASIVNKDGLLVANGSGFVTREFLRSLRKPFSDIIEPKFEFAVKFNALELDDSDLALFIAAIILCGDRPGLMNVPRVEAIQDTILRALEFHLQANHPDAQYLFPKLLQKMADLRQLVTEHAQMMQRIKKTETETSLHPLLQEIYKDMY
Description: Compound was tested functionally in vitro for inducing 50% of the maximum alkaline phosphatase activity (Transactivation) against human Peroxisome proliferator activated receptor delta using transfection assay in CV-1 cells; IA = Inactive at 10e-4 M

[12] = molecular target: T5, Peroxisome proliferator-activated receptor alpha (Homo sapiens) (UniProt Q07869); settings: CV-1; 10e-4 M
T5 sequence (whole entry): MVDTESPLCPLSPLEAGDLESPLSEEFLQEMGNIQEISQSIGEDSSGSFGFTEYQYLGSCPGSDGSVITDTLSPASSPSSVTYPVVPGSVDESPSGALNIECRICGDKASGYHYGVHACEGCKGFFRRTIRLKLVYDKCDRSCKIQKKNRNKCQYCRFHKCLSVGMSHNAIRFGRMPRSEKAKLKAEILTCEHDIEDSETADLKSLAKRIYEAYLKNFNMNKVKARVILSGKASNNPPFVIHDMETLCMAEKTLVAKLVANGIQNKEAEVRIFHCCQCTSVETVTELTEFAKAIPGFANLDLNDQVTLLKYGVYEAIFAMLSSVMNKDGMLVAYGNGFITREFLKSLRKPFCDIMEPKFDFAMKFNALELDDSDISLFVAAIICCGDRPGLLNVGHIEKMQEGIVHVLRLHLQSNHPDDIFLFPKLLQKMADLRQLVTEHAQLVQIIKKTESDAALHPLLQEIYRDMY

[13] = organism: Mus musculus; assay: Compound was tested for Antihyperlipidemic activity, activity is expressed as percent increase of body weight
[14] = organism: Rattus norvegicus; assay: The compound was tested for Antihyperlipidemic activity in Zucker Diabetic fatty rats, activity is expressed as percent reduction of NEFAs; format: functional
[15] = organism: Rattus norvegicus; assay: The compound was tested for Antihyperlipidemic activity in Zucker Diabetic fatty rats, activity is expressed as percent reduction of Triglycerides; format: functional
[16] = test system: Rattus norvegicus; assay: The compound was tested in vivo for Antihyperglycemic activity in Zucker Diabetic fatty rats, activity is expressed as percent reduction of HbA1C.; format: functional
[17] = test system: Rattus norvegicus; assay: The compound was tested in vivo for Antihyperglycemic activity in Zucker Diabetic fatty rats, activity is expressed as percent reduction of plasma glucose; format: functional
[18] = molecular target: T6, Peroxisome proliferator-activated receptor alpha (Homo sapiens, UniProt Q07869); assay: Compound was tested functionally in vitro for inducing 50% of the maximum alkaline phosphatase activity (Transactivation) against human Peroxisome proliferator activated receptor alpha using transfection assay in CV-1 cells; format: functional, cell-based
T6 sequence (Q07869 whole entry): T5 sequence (whole entry)

[19] = molecular target: T5, Peroxisome proliferator-activated receptor alpha (Homo sapiens); assay: The compound was tested in vitro for inhibiting the 50% binding of Peroxisome proliferator activated receptor alpha
[20] = molecular target: T7, Peroxisome proliferator-activated receptor gamma (Homo sapiens, UniProt P37231)
T7 sequence (P37231 whole entry): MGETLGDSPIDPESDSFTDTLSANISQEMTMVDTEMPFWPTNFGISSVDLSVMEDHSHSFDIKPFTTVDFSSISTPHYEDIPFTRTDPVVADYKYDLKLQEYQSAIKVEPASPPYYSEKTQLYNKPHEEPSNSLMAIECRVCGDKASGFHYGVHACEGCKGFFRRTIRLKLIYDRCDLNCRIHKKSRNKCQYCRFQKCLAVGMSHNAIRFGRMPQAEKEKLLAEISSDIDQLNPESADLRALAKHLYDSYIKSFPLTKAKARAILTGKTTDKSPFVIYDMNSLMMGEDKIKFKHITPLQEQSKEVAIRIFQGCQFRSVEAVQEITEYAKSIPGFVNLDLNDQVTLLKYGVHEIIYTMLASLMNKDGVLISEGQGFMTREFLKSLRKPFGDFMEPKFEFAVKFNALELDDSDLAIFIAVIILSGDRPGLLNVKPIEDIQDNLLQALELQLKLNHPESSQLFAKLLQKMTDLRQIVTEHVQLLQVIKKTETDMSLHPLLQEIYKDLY
Description: (§1) Activation of peroxisome proliferator activated receptor gamma measured by induction of 50% of maximum alkaline phosphatase activity, transfection assay in CV-1 cells

[21] = molecular target: T7, Peroxisome proliferator-activated receptor gamma; remark: listed apart in the source
Description: In vitro binding to peroxisome proliferator activated receptor gamma (PPAR gamma) using [3H]-BRL 49653 as radioligand in scintillation proximity assay (SPA)

[22] = molecular target: T7, Peroxisome proliferator-activated receptor gamma; settings: cv-1
Description: as §1

[23] = molecular target: T8, Peroxisome proliferator-activated receptor gamma (Homo sapiens) (UniProt P37231)
T8 sequence (whole entry): T7 sequence (P37231 whole entry)
Description: Tested for its ability to bind to Peroxisome proliferator activated receptor gamma using [3H]-BRL 49653 as radioligand in scintillation proximity assay (SPA)

Row | Structure (SMILES) | Reduction [1] [%] | Reduction [2] [%] | Reduction [3] [%] | Log EC50 [4] | Log EC50 [5] | EC50 [9] [nM] | Log EC50 [11] | body weight increase % [13] [%] | also measured
1 | CN(CCOc1ccc(C[C@H](Nc2ccccc2C(=O)c2ccccc2)C(=O)O)cc1)c1ccccn1 (stereo in doubt; 18) | 46 | 61 | 58 | inactive | inactive | 13.2 | inactive | 6 | Reduction [6]: 68%; Reduction [7]: 73%; Reduction [8]: 87%; Reduction [10]: 37%; Log EC50 [12]: inactive
2 | Cc1c(C)c2c(c(C)c1O)CCC(C)(COc1ccc(CC3SC(=O)NC3=O)cc1)O2 (stereo unspecified) [TROGLITAZONE] | – | – | – | – | – | – | – | – | Reduction [14]: 81%; Reduction [15]: 87%; Reduction [16]: 29%; Reduction [17]: 61%
3 | CN(CCOc1ccc(C[C@H](Nc2ccccc2C(=O)c2ccccc2)C(=O)O)cc1)c1nc2ccccc2o1 | 38 | 36 | 41 | inactive | inactive | 4.68 | inactive | 9 | EC50 [18]: 6.46 µM; pKi [19]: 5.92; EC50 [20]: 2.63 nM; Ki [21]: 1.48 nM; Log EC50 [22]: -8.58; Log Ki [23]: 8.83 µM
